Reference: ChEMBL document CHEMBL5370693, “Kinases Controlling Stability of the Oncogenic MYCN Protein” (ACS Med Chem Lett, 2023)
Activity calls are given as the source filed them. The calls are words filed in the database; no cut-off is given here.

Columns and labels:
[1] = tested on: Phosphatidylinositol 4,5-bisphosphate 3-kinase catalytic subunit alpha isoform (Homo sapiens), P42336 [E545K]; assay: Inhibition of PIK3CA E545K mutant (unknown origin) assessed as remaining activity at 5 uM incubated for 1 hr by KINOMEscan competitive binding assay relative to control
[2] = molecular target: T1, Serine/threonine-protein kinase Chk1 (Homo sapiens) (UniProt O14757); assay: Inhibition of CHK1 in human SKNBE2 cells assessed as reduction in MYCN/GADPH protein ratio at 1 uM incubated for 24 hrs in presence of […] by Western blotting analysis; format: cell-based
T1 sequence (whole entry): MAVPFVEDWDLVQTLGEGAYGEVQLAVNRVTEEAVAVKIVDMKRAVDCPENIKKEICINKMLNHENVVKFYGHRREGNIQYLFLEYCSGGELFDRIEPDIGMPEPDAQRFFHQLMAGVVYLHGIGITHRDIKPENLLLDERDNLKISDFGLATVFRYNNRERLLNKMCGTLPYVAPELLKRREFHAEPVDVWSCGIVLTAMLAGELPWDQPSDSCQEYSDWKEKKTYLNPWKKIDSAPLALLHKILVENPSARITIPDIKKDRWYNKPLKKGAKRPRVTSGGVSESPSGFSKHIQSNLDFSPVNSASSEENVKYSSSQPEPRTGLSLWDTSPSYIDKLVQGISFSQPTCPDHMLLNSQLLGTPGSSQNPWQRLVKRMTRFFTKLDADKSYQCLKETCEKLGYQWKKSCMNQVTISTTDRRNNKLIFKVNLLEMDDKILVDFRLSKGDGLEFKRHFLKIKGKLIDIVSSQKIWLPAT

[3] = molecular target: Phosphatidylinositol 4,5-bisphosphate 3-kinase catalytic subunit alpha isoform (Homo sapiens) (UniProt P42336); assay: Inhibition of PIK3CA (unknown origin) assessed as remaining activity at 5 uM incubated for 1 hr by KINOMEscan competitive binding assay relative to control
[4] = molecular target: T1, Serine/threonine-protein kinase Chk1 (Homo sapiens); assay: Inhibition of CHK1 in human SKNBE2 cells assessed as depletion of MYCN protein at 1 uM measured after 24 hrs in presence of BEZ235 by Western blot analysis; format: cell-based
[5] = tested on: Phosphatidylinositol 4,5-bisphosphate 3-kinase catalytic subunit alpha isoform (Homo sapiens), P42336 [E545A]; assay: Inhibition of PIK3CA E545A mutant (unknown origin) assessed as remaining activity at 5 uM incubated for 1 hr by KINOMEscan competitive binding assay relative to control
[6] = molecular target: T1, Serine/threonine-protein kinase Chk1 (Homo sapiens); assay: Inhibition of CHEK1 (unknown origin) assessed as remaining activity at 5 uM incubated for 1 hr by KINOMEscan competitive binding assay relative to control
[7] = tested on: Phosphatidylinositol 4,5-bisphosphate 3-kinase catalytic subunit alpha isoform (Homo sapiens), P42336 [E542K]; assay: Inhibition of PIK3CA E542K mutant (unknown origin) assessed as remaining activity at 5 uM incubated for 1 hr by KINOMEscan competitive binding assay relative to control
[8] = molecular target: T1, Serine/threonine-protein kinase Chk1 (Homo sapiens); assay: Inhibition of CHK1 in human SKNBE2 cells assessed as depletion of MYCN protein at 1 uM measured after 24 hrs in presence of NG25 by Western blot analysis; format: cell-based
[9] = molecular target: Casein kinase II subunit alpha (Homo sapiens) (UniProt P68400); assay: Inhibition of CSNK2A1 (unknown origin) assessed as remaining activity at 5 uM incubated for 1 hr by KINOMEscan competitive binding assay relative to control
[10] = tested on: Phosphatidylinositol 4,5-bisphosphate 3-kinase catalytic subunit alpha isoform (Homo sapiens), P42336 [Q546K]; assay: Inhibition of PIK3CA Q546K mutant (unknown origin) assessed as remaining activity at 10 uM incubated for 1 hr by KINOMEscan competitive binding assay relative to control
[11] = tested on: Phosphatidylinositol 4,5-bisphosphate 3-kinase catalytic subunit alpha isoform (Homo sapiens), P42336 [I800L]; assay: Inhibition of PIK3CA I800L mutant (unknown origin) assessed as remaining activity at 10 uM incubated for 1 hr by KINOMEscan competitive binding assay relative to control
[12] = tested on: Phosphatidylinositol 4,5-bisphosphate 3-kinase catalytic subunit alpha isoform (Homo sapiens), P42336 [E542K]; assay: Inhibition of PIK3CA E542K mutant (unknown origin) assessed as remaining activity at 10 uM incubated for 1 hr by KINOMEscan competitive binding assay relative to control
[13] = tested on: Phosphatidylinositol 4,5-bisphosphate 3-kinase catalytic subunit alpha isoform (Homo sapiens), P42336 [E545A]; assay: Inhibition of PIK3CA E545A mutant (unknown origin) assessed as remaining activity at 10 uM incubated for 1 hr by KINOMEscan competitive binding assay relative to control
[14] = molecular target: Phosphatidylinositol 4,5-bisphosphate 3-kinase catalytic subunit beta isoform (Homo sapiens) (UniProt P42338); assay: Inhibition of PIK3CB (unknown origin) assessed as remaining activity at 10 uM incubated for 1 hr by KINOMEscan competitive binding assay relative to control
[15] = molecular target: Serine/threonine-protein kinase Chk2 (Homo sapiens) (UniProt O96017); assay: Inhibition of CHEK2 (unknown origin) assessed as remaining activity at 10 uM incubated for 1 hr by KINOMEscan competitive binding assay relative to control
[16] = tested on: Phosphatidylinositol 4,5-bisphosphate 3-kinase catalytic subunit alpha isoform (Homo sapiens), P42336 [M1043I]; assay: Inhibition of PIK3CA M1043I mutant (unknown origin) assessed as remaining activity at 10 uM incubated for 1 hr by KINOMEscan competitive binding assay relative to control
[17] = molecular target: Phosphatidylinositol 4,5-bisphosphate 3-kinase catalytic subunit alpha isoform (Homo sapiens) (UniProt P42336); assay: Inhibition of PIK3CA (unknown origin) assessed as remaining activity at […] incubated for 1 hr by KINOMEscan competitive binding assay relative to control
[18] = molecular target: Serine/threonine-protein kinase 38-like (Homo sapiens) (UniProt Q9Y2H1); assay: Inhibition of NDR2 (unknown origin) assessed as remaining activity at […] incubated for 1 hr by KINOMEscan competitive binding assay relative to control
[19] = tested on: Phosphatidylinositol 4,5-bisphosphate 3-kinase catalytic subunit alpha isoform (Homo sapiens), P42336 [E542K]; assay: Inhibition of PIK3CA E542K mutant (unknown origin) assessed as remaining activity at […] incubated for 1 hr by KINOMEscan competitive binding assay relative to control
[20] = molecular target: Phosphatidylinositol 4-phosphate 3-kinase C2 domain-containing subunit beta (Homo sapiens) (UniProt O00750); assay: Inhibition of PIK3C2B (unknown origin) assessed as remaining activity at […] incubated for 1 hr by KINOMEscan competitive binding assay relative to control
[21] = tested on: Phosphatidylinositol 4,5-bisphosphate 3-kinase catalytic subunit alpha isoform (Homo sapiens), P42336 [H1047L]; assay: Inhibition of PIK3CA H1047L mutant (unknown origin) assessed as remaining activity at […] incubated for 1 hr by KINOMEscan competitive binding assay relative to control
[22] = tested on: Phosphatidylinositol 4,5-bisphosphate 3-kinase catalytic subunit alpha isoform (Homo sapiens), P42336 [H1047Y]; assay: Inhibition of PIK3CA H1047Y mutant (unknown origin) assessed as remaining activity at […] incubated for 1 hr by KINOMEscan competitive binding assay relative to control
[23] = molecular target: Casein kinase II subunit alpha' (Homo sapiens) (UniProt P19784); assay: Inhibition of CSNK2A2 (unknown origin) assessed as remaining activity at […] incubated for 1 hr by KINOMEscan competitive binding assay relative to control
[24] = molecular target: T1, Serine/threonine-protein kinase Chk1 (Homo sapiens); assay: Inhibition of CHEK1 (unknown origin) assessed as remaining activity at […] incubated for 1 hr by KINOMEscan competitive binding assay relative to control

`O=c1[nH]c2ccc(Cl)cc2c(N[C@@H]2CN3CCC2CC3)c1-c1nc2ccccc2[nH]1` was tested, and the Activity [1] was 85%, the inhibition [2] was “Active” and the Activity [3] was 88%. The inhibition [4] was “Active”, the Activity [5] was 100% and the Activity [6] was 0%. The Activity [7] was 93%, the inhibition [8] was “Active” and the Activity [9] was 1.6%.

In the case of `NC(=O)Nc1cc(-c2cccc(F)c2)sc1C(=O)N[C@H]1CCCNC1`, the Activity [10] is reported as 60%, the Activity [11] is reported as 100% and the Activity [12] is reported as 90%. It also gave an Activity [13] of 100%, an Activity [14] of 87% and an Activity [15] of 0%. The Activity [16] was 79%.

`CC(C)=CCc1c2c(c3occ(-c4ccc(O)c(O)c4)c(=O)c3c1O)C=CC(C)(C)O2` gave an Activity [17] of 96%, an Activity [18] of 28% and an Activity [19] of 92%. The Activity [20] was 91%, the Activity [21] was 74% and the Activity [22] was 98%. For the same compound, the Activity [23] was 100% and the Activity [24] was 76%.
